Assay results: US20240409585A1, “MACROCYCLIC IMMUNOMODULATORS” (priority 2021, published 2024)
Numbered stars: 1 amine (or outer) side, 2 acyl side, 3 side chain; on linkers, the order of the positions; unused ones are H or OH. Bridge positions count the residues as written; N and C are the ends. Square brackets hold non-standard residues; d marks the D form. Peptide text beside a SMILES is read from it. * marks the point of attachment. Bip(4'-COOH) = N[C@@H](Cc1ccc(-c2ccc(C(=O)O)cc2)cc1)C(=O)O; X2 = O=C(C[C@H](N[*:1])C(=O)[*:2])NS(=O)(=O)c1ccc(Cl)cc1; X7 = O=C(C[C@H](N[*:1])C(=O)[*:2])NS(=O)(=O)c1ccccc1F; Phe(3-CF3) = N[C@@H](Cc1cccc(C(F)(F)F)c1)C(=O)O; Ala(morpholin-4-yl) = N[C@@H](CN1CCOCC1)C(=O)O; Phe(4-COOH) = N[C@@H](Cc1ccc(C(=O)O)cc1)C(=O)O; Bip = N[C@@H](Cc1ccc(-c2ccccc2)cc1)C(=O)O; Malonyl = O=C(CC(=O)[*:2])[*:1]; Cha = N[C@@H](CC1CCCCC1)C(=O)O; NTA = O=C(O)CN(CC(=O)O)CC(=O)*; Carboxymethyl = O=C(O)C*; NMeA = CN[C@@H](C)C(=O)O; Nle = CCCC[C@H](N)C(=O)O; Orn = NCCC[C@H](N)C(=O)O; Dab = NCC[C@H](N)C(=O)O

What was measured:
[1] = molecular target: T1, PE-labeled human PD-L1-Ig binding to Jurkat cell line over-expressing human PD-1 (Jurkat-PD-1) (Homo sapiens, UniProt Q15116); test: Jurkat-PD-1 Cell Binding High-Content Screening Assay (CBA): Method 2 (presence and absence of tween-20); conditions: Jurkat-PD-1 cells, PE-labeled PD-L1-Ig 20 nM; presence or absence of tween-20 not given; head μM; read-out: CBA Method 2 μM
T1 construct: expressed in transfected cells; host or cells: Jurkat
T1 sequence (Q15116 25-288): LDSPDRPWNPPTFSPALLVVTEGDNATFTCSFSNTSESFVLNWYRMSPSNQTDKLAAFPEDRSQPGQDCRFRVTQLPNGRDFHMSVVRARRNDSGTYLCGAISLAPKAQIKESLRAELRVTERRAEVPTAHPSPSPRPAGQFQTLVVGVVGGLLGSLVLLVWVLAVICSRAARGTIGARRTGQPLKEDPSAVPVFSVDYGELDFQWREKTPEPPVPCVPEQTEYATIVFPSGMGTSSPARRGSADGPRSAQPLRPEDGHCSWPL
How it was run: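 Compounds incubated with Jurkat cells overexpressing human PD-1 for 2 h at 37° C, tested with and without tween-20 to flag aggregation. PE-labeled human PD-L1-Ig (20 nM final) added in DMEM/10% FCS; binding read by high-content imaging.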

[2] = molecular target: T1, PE-labeled human PD-L1-Ig binding to Jurkat cell line over-expressing human PD-1 (Jurkat-PD-1); test: Jurkat-PD-1 Cell Binding High-Content Screening Assay (CBA): Method 1; conditions: Jurkat-PD-1 cells, PE-labeled PD-L1-Ig; μM; read-out: CBA Method 1 μM

| IC50 [1] [µM] | IC50 [2] [µM] | Structure (SMILES) |
| --- | --- | --- |
| 0.0267 | 0.0401 | CCCC[C@@H]1NC(=O)CSC[C@@H](C(=O)N[C@@H](CCN)C(N)=O)NC(=O)[C@H](CCC(=O)O)NC(=O)[C@H](C(C)C)NC(=O)[C@H](CC2CCCCC2)NC(=O)[C@H](CCN)NC(=O)[C@@H](CC(C)C)NC(=O)[C@H](C)N(C)C(=O)[C@H](Cc2ccc(OCC(=O)O)cc2)NC(=O)[C@H](Cc2ccc(-c3ccccc3)cc2)NC(=O)[C@H](Cc2ccc(OCC(=O)O)cc2)NC(=O)[C@H](Cc2cccc(C(F)(F)F)c2)NC(=O)[C@H](CC(=O)O)NC(=O)[C@H](Cc2ccc(-c3ccc(C(=O)O)cc3)cc2)NC1=O [Example 5074] ({CH2CO}-[Nle][Bip(4'-COOH)]D[Phe(3-CF3)]Y(Carboxymethyl)[Bip]Y(Carboxymethyl)[NMeA][dL][Dab][Cha]VEC[Dab]-NH2; thioether N-14) |
| 0.372 | 0.128 | CC(C)C[C@H]1NC(=O)[C@H](C)N(C)C(=O)[C@H](CCC(N)=O)NC(=O)[C@H](Cc2ccc(-c3ccccc3)cc2)NC(=O)[C@H](Cc2ccc(C(=O)O)cc2)NC(=O)[C@H](Cc2cccc(C(F)(F)F)c2)NC(=O)[C@H](CCNC(=O)CC(=O)O)NC(=O)[C@H](Cc2ccc(C(=O)O)cc2)NC(=O)[C@H](CN2CCOCC2)NC(=O)CSC[C@@H](C(=O)N[C@@H](CCN)C(N)=O)NC(=O)[C@H](CCCN)NC(=O)[C@H](C(C)C)NC(=O)[C@H](CC2CCCCC2)NC(=O)[C@H](CCN)NC1=O [Example 5075] ({CH2CO}-[Ala(morpholin-4-yl)][Phe(4-COOH)][Dab](Malonyl)[Phe(3-CF3)][Phe(4-COOH)][Bip]Q[NMeA][dL][Dab][Cha]V[Orn]C[Dab]-NH2; thioether N-14) |
| 0.111 | 0.463 | CC(C)C[C@H]1NC(=O)[C@H](C)N(C)C(=O)[C@H](CCC(N)=O)NC(=O)[C@H](Cc2ccc(-c3ccccc3)cc2)NC(=O)[C@H](Cc2ccc(C(=O)O)cc2)NC(=O)[C@H](Cc2cccc(C(F)(F)F)c2)NC(=O)[C@H](CCNC(=O)CN(CC(=O)O)CC(=O)O)NC(=O)[C@H](Cc2ccc(C(=O)O)cc2)NC(=O)[C@H](CN2CCOCC2)NC(=O)CSC[C@@H](C(=O)N[C@@H](CCN)C(N)=O)NC(=O)[C@H](CCCN)NC(=O)[C@H](C(C)C)NC(=O)[C@H](CC2CCCCC2)NC(=O)[C@H](CCN)NC1=O [Example 5076] ({CH2CO}-[Ala(morpholin-4-yl)][Phe(4-COOH)][Dab](NTA)[Phe(3-CF3)][Phe(4-COOH)][Bip]Q[NMeA][dL][Dab][Cha]V[Orn]C[Dab]-NH2; thioether N-14) |
| 0.338 | 0.345 | CC(C)C[C@H]1NC(=O)[C@H](C)N(C)C(=O)[C@H](CCC(N)=O)NC(=O)[C@H](Cc2ccc(-c3ccccc3)cc2)NC(=O)[C@H](Cc2ccc(C(=O)O)cc2)NC(=O)[C@H](Cc2cccc(C(F)(F)F)c2)NC(=O)[C@H](CC(=O)NS(=O)(=O)c2ccccc2F)NC(=O)[C@H](Cc2ccc(C(=O)O)cc2)NC(=O)[C@H](CN2CCOCC2)NC(=O)CSC[C@@H](C(=O)N[C@@H](CCN)C(N)=O)NC(=O)[C@H](CCCN)NC(=O)[C@H](C(C)C)NC(=O)[C@H](CC2CCCCC2)NC(=O)[C@H](CCN)NC1=O [Example 5077] ({CH2CO}-[Ala(morpholin-4-yl)][Phe(4-COOH)][X7][Phe(3-CF3)][Phe(4-COOH)][Bip]Q[NMeA][dL][Dab][Cha]V[Orn]C[Dab]-NH2; thioether N-14) |
| 0.264 | 0.533 | CC(C)C[C@H]1NC(=O)[C@H](C)N(C)C(=O)[C@H](CCC(N)=O)NC(=O)[C@H](Cc2ccc(-c3ccccc3)cc2)NC(=O)[C@H](Cc2ccc(C(=O)O)cc2)NC(=O)[C@H](Cc2cccc(C(F)(F)F)c2)NC(=O)[C@H](CC(=O)NS(=O)(=O)c2ccc(Cl)cc2)NC(=O)[C@H](Cc2ccc(C(=O)O)cc2)NC(=O)[C@H](CN2CCOCC2)NC(=O)CSC[C@@H](C(=O)N[C@@H](CCN)C(N)=O)NC(=O)[C@H](CCCN)NC(=O)[C@H](C(C)C)NC(=O)[C@H](CC2CCCCC2)NC(=O)[C@H](CCN)NC1=O [Example 5078] ({CH2CO}-[Ala(morpholin-4-yl)][Phe(4-COOH)][X2][Phe(3-CF3)][Phe(4-COOH)][Bip]Q[NMeA][dL][Dab][Cha]V[Orn]C[Dab]-NH2; thioether N-14) |
